These are literature values, as cited in PubChem BioAssay AID1259409 (Chemical Carcinogenesis Research Information System (CCRIS), 2018).

In this data set the test system is rodent chemically induced tumor inhibition, incidence and multiplicity. Briefly: CCRIS tumor inhibitor studies. The note with it: Route [Inhibitor]: ORAL. From the text:
The CCRIS database contains chemical records with carcinogenicity, mutagenicity, tumor promotion, and tumor inhibition test results. It was developed by the National Cancer Institute (NCI). Data are derived from studies cited in primary journals, current awareness tools, NCI reports, and other sources. Test results have been reviewed by experts in carcinogenesis and mutagenesis.
CCRIS provides historical information from the years 1985 - 2011. It is no longer updated.
This is an archive assay for CCRIS tumor inhibitor studies.

On to `S=C=NCCc1ccccc1`, for which the “tumour outcome (control, treated, inhibition, significance)” value runs as follows: (Carcinogen: DIETHYLNITROSAMINE, 55-18-5, N-METHYL-N-NITROSOUREA, 684-93-5, N-BUTYL-N-(4-HYDROXYBUTYL)NITROSAMINE, 3817-11-6, DIMETHY, Carcinogen: DIETHYLNITROSAMINE, 55-18-5, N-METHYL-N-NITROSOUREA, 684-93-5, N-BUTYL-N-(4-HYDROXYBUTYL)NITROSAMINE, 3817-11-6, DIMETHY, Dose [Inhibitor]: 0, 0.1% IN THE DIET FOR 30 D BEGINNING 1 DAY PRIOR TO CARCINOGEN TREATMENT (STUDY DURATION: 28 WK), Species: RAT, Strain/Sex: F344/MALE, Target Tissue: Type of Lesion: LARGE INTESTINE: ADENOMA, Dose [Carcinogen]: 100 MG/KG BW DEN ONCE FOLLOWED BY 20 MG/KG BW MNU 4 TIMES AND 0.05% BBN IN DRINKING WATER DURING FIRST 2 WK THEN 40 MG/K, Promoter: NONE USED) 27%, 54%, -100%, not significant; (Carcinogen: DIETHYLNITROSAMINE, 55-18-5, N-METHYL-N-NITROSOUREA, 684-93-5, N-BUTYL-N-(4-HYDROXYBUTYL)NITROSAMINE, 3817-11-6, DIMETHY, Carcinogen: DIETHYLNITROSAMINE, 55-18-5, N-METHYL-N-NITROSOUREA, 684-93-5, N-BUTYL-N-(4-HYDROXYBUTYL)NITROSAMINE, 3817-11-6, DIMETHY, Dose [Inhibitor]: 0, 0.1% IN THE DIET FOR 30 D BEGINNING 1 DAY PRIOR TO CARCINOGEN TREATMENT (STUDY DURATION: 28 WK), Species: RAT, Strain/Sex: F344/MALE, Target Tissue: Type of Lesion: SMALL INTESTINE: CARCINOMA, Dose [Carcinogen]: 100 MG/KG BW DEN ONCE FOLLOWED BY 20 MG/KG BW MNU 4 TIMES AND 0.05% BBN IN DRINKING WATER DURING FIRST 2 WK THEN 40 MG/K, Promoter: NONE USED) 7%, 23%, -229%, not significant; (Carcinogen: DIETHYLNITROSAMINE, 55-18-5, N-METHYL-N-NITROSOUREA, 684-93-5, N-BUTYL-N-(4-HYDROXYBUTYL)NITROSAMINE, 3817-11-6, DIMETHY, Carcinogen: DIETHYLNITROSAMINE, 55-18-5, N-METHYL-N-NITROSOUREA, 684-93-5, N-BUTYL-N-(4-HYDROXYBUTYL)NITROSAMINE, 3817-11-6, DIMETHY, Dose [Inhibitor]: 0, 0.1% IN THE DIET FOR 30 D BEGINNING 1 DAY PRIOR TO CARCINOGEN TREATMENT (STUDY DURATION: 28 WK), Species: RAT, Strain/Sex: F344/MALE, Target Tissue: Type of Lesion: THYROID: CARCINOMA, Dose [Carcinogen]: 100 MG/KG BW DEN ONCE FOLLOWED BY 20 MG/KG BW MNU 4 TIMES AND 0.05% BBN IN DRINKING WATER DURING FIRST 2 WK THEN 40 MG/K, Promoter: NONE USED) 7%, 8%, -14%, not significant; (Carcinogen: DIETHYLNITROSAMINE, 55-18-5, N-METHYL-N-NITROSOUREA, 684-93-5, N-BUTYL-N-(4-HYDROXYBUTYL)NITROSAMINE, 3817-11-6, DIMETHY, Carcinogen: DIETHYLNITROSAMINE, 55-18-5, N-METHYL-N-NITROSOUREA, 684-93-5, N-BUTYL-N-(4-HYDROXYBUTYL)NITROSAMINE, 3817-11-6, DIMETHY, Dose [Inhibitor]: 0, 0.1 IN THE DIET FOR 30 D BEGINNING 1 DAY PRIOR TO CARCINOGEN TREATMENT (STUDY DURATION: 28 WK), Species: RAT, Strain/Sex: F344/MALE, Target Tissue: Type of Lesion: SMALL INTESTINE: ADENOMA, Dose [Carcinogen]: 100 MG/KG BW DEN ONCE FOLLOWED BY 20 MG/KG BW MNU 4 TIMES AND 0.05% BBN IN DRINKING WATER DURING FIRST 2 WK THEN 40 MG/K, Promoter: NONE USED) 33%, 31%, 6%, not significant; (Carcinogen: DIETHYLNITROSAMINE, 55-18-5, N-METHYL-N-NITROSOUREA, 684-93-5, N-BUTYL-N-(4-HYDROXYBUTYL)NITROSAMINE, 3817-11-6, DIMETHY, Carcinogen: DIETHYLNITROSAMINE, 55-18-5, N-METHYL-N-NITROSOUREA, 684-93-5, N-BUTYL-N-(4-HYDROXYBUTYL)NITROSAMINE, 3817-11-6, DIMETHY, Dose [Inhibitor]: 0.1% IN THE DIET FOR 30 D BEGINNING 1 DAY PRIOR TO CARCINOGEN TREATMENT (STUDY DURATION: 28 WK), Species: RAT, Strain/Sex: F344/MALE, Target Tissue: Type of Lesion: URINARY BLADDER: CARCINOMA, Dose [Carcinogen]: 100 MG/KG BW DEN ONCE FOLLOWED BY 20 MG/KG BW MNU 4 TIMES AND 0.05% BBN IN DRINKING WATER DURING FIRST 2 WK THEN 40 MG/K, Promoter: NONE USED) 7%, 0%, 100%, not significant; (Carcinogen: DIETHYLNITROSAMINE, 55-18-5, N-METHYL-N-NITRSOUREA, 684-93-5, N-BUTYL-N-(4-HYDROXYBUTYL)NITROSAMINE, 3817-11-6, DIMETHYL, Carcinogen: DIETHYLNITROSAMINE, 55-18-5, N-METHYL-N-NITRSOUREA, 684-93-5, N-BUTYL-N-(4-HYDROXYBUTYL)NITROSAMINE, 3817-11-6, DIMETHYL, Dose [Inhibitor]: 0, 0.1% IN THE DIET FOR 30 D BEGINNING 1 DAY PRIOR TO CARCINOGEN TREATMENT (STUDY DURATION: 28 WK), Species: RAT, Strain/Sex: F344/MALE, Target Tissue: Type of Lesion: URINARY BLADDER: PAPILLOMA, Dose [Carcinogen]: 100 MG/KG BW DEN ONCE FOLLOWED BY 20 MG/KG BW MNU 4 TIMES AND 0.05% BBN IN DRINKING WATER DURING FIRST 2 WK THEN 40 MG/K, Promoter: NONE USED) 7%, 0%, 100%, not significant. The “tumour outcome (control, treated, inhibition, significance)” value was 38/40 (95%), 26/30 (87%), 8%, not significant (Carcinogen: N-BUTYL-N(4-HYDROXYBUTYL)NITROSAMINE (3817-11-6), Dose [Inhibitor]: 0.5 UMOL/G IN DIET BEGINNING 1 WK BEFORE CARCINOGEN EXPOSURE (STUDY DURATION: 16 WK), Species: RAT, Strain/Sex: WISTAR/MALE, Target Tissue: Type of Lesion: URINARY BLADDER: PAPILLOMA, Dose [Carcinogen]: 0.025% IN DRINKING WATER FOR 15 WK, Promoter: NONE USED); 4/40 (10%), 4/30 (13%), -30%, not significant (Carcinogen: N-BUTYL-N(4-HYDROXYBUTYL)NITROSAMINE (3817-11-6), Dose [Inhibitor]: 0.5 UMOL/G IN DIET BEGINNING 1 WK BEFORE CARCINOGEN EXPOSURE (STUDY DURATION: 16 WK), Species: RAT, Strain/Sex: WISTAR/MALE, Target Tissue: Type of Lesion: URINARY BLADDER: TRANSITIONAL CELL CARCINOMA, Dose [Carcinogen]: 0.025% IN DRINKING WATER FOR 15 WK, Promoter: NONE USED); 100%, 13%, 87%, not calculated (Carcinogen: N-NITROSOBENZYLMETHYLAMINE, 937-40-6, Dose [Inhibitor]: 0, 3 UMOL/G DIET BEGINNING 2 WK PRIOR TO CARCINOGEN TREATMENT AND CONTINUING FOR 8 WK POST CARCINOGEN TREATMENT (STUDY D, Species: RAT, Strain/Sex: F344/MALE, Target Tissue: Type of Lesion: ESOPHAGUS: TUMOR, Dose [Carcinogen]: 0.5 MG/KG 1/WK FOR 15 WK, Promoter: NONE USED); 100%, 13%, 87%, not calculated (Carcinogen: N-NITROSOBENZYLMETHYLAMINE, 937-40-6, Dose [Inhibitor]: 0, 3 UMOL/G IN DIET BEGINNING 2 WK PRIOR TO CARCINOGEN TREATMENT AND CONTINUING FOR DURATION OF STUDY (STUDY DURATION: 2, Species: RAT, Strain/Sex: F344/MALE, Target Tissue: Type of Lesion: ESOPHAGUS: TUMORS, Dose [Carcinogen]: 0.5 MG/KG BW IN 0.1 ML OF DMSO 1/WK FOR 15 WK, Promoter: NONE USED); 100%, 0%, 100%, not calculated (Carcinogen: N-NITROSOBENZYLMETHYLAMINE, 937-40-6, Dose [Inhibitor]: 0, 6 UMOL/G DIET BEGINNING 2 WK PRIOR TO CARCINOGEN TREATMENT AND CONTINUING FOR 8 WK POST CARCINOGEN TREATMENT (STUDY D, Species: RAT, Strain/Sex: F344/MALE, Target Tissue: Type of Lesion: ESOPHAGUS: TUMOR, Dose [Carcinogen]: 0.5 MG/KG 1/WK FOR 15 WK, Promoter: NONE USED); 15/15 (100%), 0/15 (0%), 100%, not calculated (Carcinogen: N-NITROSOBENZYLMETHYLAMINE, 937-40-6, Dose [Inhibitor]: 0, 6 UMOL/G IN DIET BEGINNING 2 WK PRIOR TO CARCINOGEN TREATMENT AND CONTINUING FOR DURATION OF STUDY (STUDY DURATION: 2, Species: RAT, Strain/Sex: F344/MALE, Target Tissue: Type of Lesion: ESOPHAGUS: TUMORS, Dose [Carcinogen]: 0.5 MG/KG BW IN 0.1 ML OF DMSO 1/WK FOR 15 WK, Promoter: NONE USED). Moreover, the “tumour outcome (control, treated, inhibition, significance)” value (Carcinogen: N-NITROSOBIS(2-OXOPROPYL)AMINE [60599-38-4], Dose [Inhibitor]: 3 UMOL IN DIET FOR 49 WK BEGINNING 2 WK POST LAST CARCINOGEN DOSE (STUDY DURATION: 52 WK), Species: HAMSTER, Strain/Sex: SYRIAN/FEMALE, Target Tissue: Type of Lesion: LIVER: CHOLANGIOCELLAR ADENOMA, Dose [Carcinogen]: 20 MG/KG BW 1X/WK FOR 2 WK (STUDY DURATION: 52 WK), Promoter: NONE) is given as 19/25 (76.0%), 20/28 (71.4%), 6%, not significant; the “tumour outcome (control, treated, inhibition, significance)” value (Carcinogen: N-NITROSOBIS(2-OXOPROPYL)AMINE [60599-38-4], Dose [Inhibitor]: 3 UMOL IN DIET FOR 49 WK BEGINNING 2 WK POST LAST CARCINOGEN DOSE (STUDY DURATION: 52 WK), Species: HAMSTER, Strain/Sex: SYRIAN/FEMALE, Target Tissue: Type of Lesion: LIVER: CHOLANGIOCELLULAR ADENOMA, Dose [Carcinogen]: 20 MG/KG BW 1X/WK FOR 2 WK (STUDY DURATION: 52 WK), Promoter: NONE) was 19/25 (76.0%), 23/28 (82.1%), -8%, not significant; the “tumour outcome (control, treated, inhibition, significance)” value (Carcinogen: N-NITROSOBIS(2-OXOPROPYL)AMINE [60599-38-4], Dose [Inhibitor]: 3 UMOL IN DIET FOR 49 WK BEGINNING 2 WK POST LAST CARCINOGEN DOSE (STUDY DURATION: 52 WK), Species: HAMSTER, Strain/Sex: SYRIAN/FEMALE, Target Tissue: Type of Lesion: LIVER: HEPATOCELLULAR ADENOMA, Dose [Carcinogen]: 20 MG/KG BW 1X/WK FOR 2 WK (STUDY DURATION: 52 WK), Promoter: NONE) is 18/25 (72.0%), 16/28 (57.1%), 21%, not significant.
